Laboratory results as given in patent publication US6967102B1, “Nitric oxide manipulation of muscle satellite cell activation” (University of Manitoba, priority 1999, dated 2005).
Entries after “also recorded” stand apart in the source; their conditions may differ.

Experiments:
[1] = tested on: dystrophic muscle; assay: Central nucleation index (CNI) in LTA and diaphragm of treated mdx mice; assay type: in vivo; details: mdx mice treated from 4–8 weeks of age; for CNI (central nucleation index) in DIA: diaphragm; for CNI (central nucleation index) in LTA: left tibialis anterior
Text: A study of 4 groups (n≈10/group) of mdx dystrophic mice treated with placebo, deflazacort, deflazacort plus L-NAME (a NOS inhibitor), or deflazacort plus L-arginine (a […]). Deflazacort was given by daily injection (ip) and L-NAME and L-arginine were given systemically in the drinking water.
When a normal peripherally nucleated myofiber degenerates, muscle precursor cells proliferate to varying extents (Grounds Md., McGeachie J K. (1989). Exp. Cell Res 180:429–439) and fuse to form centrally nucleated myotubes. These myotubes grow, or even hypertrophy compared to the original distribution of fiber size in that muscle, and span the injured area, (Anderson J E, Ovalle W K, Bressler B H. (1987). Anat. Rec. 219:243–257; Anderson J E, Bressler B H, Ovalle W K. (1988). J. Muscle Res. Cell Motil. 9:499–515; Ontell M, Feng K C, Klueber K, Dunn R F, Taylor F. (1984). Anat. Rec. 208:159 174) but remain centrally nucleated; thus the central nucleation index (CNI) is a useful measure of accumulated damage and repair. (Karpati G, Carpenter S. (1988). Muscle Nerve. 11:795–803). The CNI is a measurement well known in the art (see Karpati and Carpenter. 1988. Muscle Nerve. 11:795–803 and Anderson et al. 1996. Muscle Nerve. 19:1576–1585).
CNI is the proportion of all fibers in a section or a muscle which show a centrally-located nucleus (often given as a percentage). Since muscular dystrophy causes ongoing damage of muscle fibers, the successful repair of those fibers is marked by centrally-nucleated fibers which accumulate as a proportion of total fibers. Unsuccessful repair can be viewed as a loss of fibers in a section of a whole muscle; this too can produce a change in the ratio of centrally nucleated to total number of fibers (expressed as a percentage).
In this experiment, muscle tissues are collected from the treated animals. LTA and diaphragm muscles were sectioned, and counts of fibers with central nuclei and fibers with peripheral nuclei were performed. The largest diameter of the muscle section in each of the two sections of each muscle was used for counting, for 10 mice per group (2 muscles per mouse).
This is similar for the tibialis anterior muscle (LTA) and diaphragm at the age shown in the graph (which is 8 weeks of age) and is reliably used to monitor the progressive effect of dystrophic fiber injury on a muscle over time as the disease progresses. CNI will increase with age in the mdx mice (until the plateau discussed above). Mice are treated from 4–8 weeks of age with placebo, Deflazacort, D+L-NAME or D+L-Arginine.

[2] = tested on: satellite cells; assay: Cell yield time course 0–30 min after crush injury of right tibialis anterior, normal mice; assay type: in vivo, normal mice (C57BL/6); details: L-Arg 225 mg/kg ip 30 min before crush; 0–30 min
[3] = Muscle weight to body weight (edema) and haemorrhage after crush injury, normal mice; assay type: in vivo, normal mice (C57BL/6); details: ip treatment 30 min before crush; 0–30 min after injury
[4] = tested on: satellite cells; assay: Isolated single muscle fiber culture, BrdU incorporation by satellite cells (activation); assay type: cell-based, C57 mice
Text: (§1) Flexor digitorum brevis (FDB) muscles from normal C57 mice were dissected from the foot, and connective tissue, vessels and nerves were cleaned off the muscle. Following a 3 hr collagenase digestion (0.2% in DMEM), and viewed on a dissecting microscope, the muscle was separated into three bundles and the overlying connective tissue was peeled off the bundles using sharp forceps. The individual fibers were then teased off the remnant tendon and into smaller bundles. Bundles were gently triturated to separate single fibers using a wide mouth glass pipette with a polished end. The fibers were plated onto vitrogen-coated 35 mm dishes and grown in 1.5 ml of DMEM+10% Horse Serum (HS)+1% antimyotics+0.1% gentamycin.
Live fibers exclude Ethidium bromide (EtBr), but 5 minutes after adding a myotoxin called marcaine (Bischoff R. (1990b). Development 109:943–952) to the medium, nuclei in fibers (and not in satellite cells) are fluorescent for EtBr. Hypercontraction occurs another 5–10 min later. Satellite cells exclude EtBr but take up an indicator of live cells, fluoresceine diacetate (FDA). Without this characterization, observations on satellite cells in a culture could include artefacts from membrane damage that initiates activation differently than any treatment under study. Satellite cells on our intact fibers were also quiescent after isolation. […] This conclusion is critical to any studies that propose to examine activation signals and their regulation.
Experimental Protocol: Fibers are isolated from flexor digitorum brevis (FDB) muscles on the plantar foot of 3 mice, then digested in collagenase (0.2% for 3 hr) and separated under a stereo microscope into small bundles (Yablonka-Reuveni, Z. and Rivera AJ. (1994). Dev. Biol. 164:588–603). […]
Fibers are incubated in 20% serum replacement medium (CSR; Yablonka-Reuveni, Z, and Rivera A J. (1994). Dev. Biol. 164:588–603). […] Activation is measured by counting labelled satellite cells per fiber (150–250 fibers/dish). […]

[5] = tested on: muscle fibers; assay: Marcaine / ethidium bromide staining and hypercontraction of isolated muscle fibers; assay type: cell-based, C57 mice
Text: as §1
Marcaine, an anaesthetic, was previously used to kill live fibers by adding it to a dish for 20–30 minutes (Cornelison, D. D. W., and Wold, B. J. (1997). Dev. Biol. 191:270–283) but the exact time of fiber death was never identified. Ethidium bromide (EtBr) is a fluorescent chemical which intercalates into the DNA of dead cells but is not taken up into live fibers. Media was mostly decanted from freshly plated fibers and the fibers were located using a microscope. 2–3 drops of either EtBr (2.5 μg/ml) in DMEM or Marcaine (0.05%)+EtBr (2.5 μg/ml) in DMEM were then added to the dish under continuous observation. Fiber hypercontraction was observed using a phase lens and the time course of EtBr nuclear staining was observed under UV light using a red filter. Photographs (ASA400 Fuji Colour Film) were taken to record staining of live, fixed, EtBr and Marcaine treated fibers and nuclei.

[6] = tested on: muscle precursor cells; details: deflazacort treatment on mdx mice; cited from earlier work
[7] = Marcaine (0.05%)+EtBr (2.5 μg/ml) in DMEM

D+L-Arginine
CNI (central nucleation index) in DIA [1]: decrease the CNI of DIA from the level seen with D+L-NAME | CNI (central nucleation index) in LTA [1]: increase in LTA CNI from deflazacort alone; also recorded: still significantly lower than placebo treatment

N=C(N)NCCC[C@H](N)C(=O)O [L-Arg, L-arginine]
RSOL cell counts [2]: unchanged | RTA cell yield time course [2]: rose sharply at 5 min., and also stayed high | muscle weight profile (RTA relative to LTA; muscle weight as proportion of body weight) [3]: little or no change in muscle weight profile | concentration showing maximal activation ([4]; L-Arginine 50–1000 nM, initial results): 500 nM | satellite cell activation (marked by DNA synthesis) ([4]; single normal fibers, L-arginine at various concentrations, 48 hr): stimulates activation in a dose-dependent manner | satellite cell migration away from fibers ([4]; single normal fibers, L-arginine, 48 hr): stimulates satellite cell migration away from fibers

CCCCN1CCCCC1C(=O)Nc1c(C)cccc1C (stereo not drawn) [Marcaine]
time to EtBr staining of nuclei of live fibers after Marcaine [5, 7]: 60 to 90 s | time to fiber hypercontraction [5, 7]: 5 to 10 min | further time until hypercontraction after nuclei fluoresce ([5]; marcaine added to the medium): 5 to 10 min | time after adding marcaine at which nuclei in fibers are fluorescent for EtBr ([5]; marcaine added to the medium): 5 min

CC(=O)OCC(=O)[C@@]12N=C(C)O[C@@H]1C[C@H]1[C@@H]3CCC4=CC(=O)C=C[C@]4(C)[C@H]3[C@@H](O)C[C@@]12C [deflazacort]
CNI (central nucleation index) in DIA [1]: significantly lower CNI after deflazacort | CNI (central nucleation index) in LTA [1]: 0.4 | increase in precursor cell proliferation and formation of new muscle fibers [6]: 1.5–2 fold
